The results in this text go back to paper PMC10819767, “An ADAM10 Exosite Inhibitor Is Efficacious in an In Vivo Collagen-Induced Arthritis Model” (Pharmaceuticals, 2024).

One test concerns C-reactive protein (CRP). Nature of the test: RA serum marker ELISA, CRP, CIA mice. The class given is in vivo, C57 BL/6 mice. Particulars: CID 3117694 50 mg/kg/day; indomethacin 2.5 mg/kg. How it is done: (§1) The sample size for therapeutic evaluation was calculated using power analysis based on experimental data from similar studies. In a two-sided test and setting the α value at 0.05 and desired power at 0.95, the sample size turned out to be 5 per group. We also expected deaths during the experiments; therefore, we used the formula Nt = N/1-q, where Nt is the number of mice initially used, N is the number required at the end of the study, and q is the proportion of attrition, which is generally 10%. Thus, at the end of the study period, we expected to have data from at least 6 mice per group, which is enough to attain statistical significance if it exists. Data were analyzed using a one-way ANOVA followed by Dunnett’s test compared with the vehicle control. At the end of the study, the mice were anesthetized and sacrificed using CO2 euthanasia. The hind paws of the mice were subjected to a histopathological examination, and the serum was analyzed for CRP, TNF-α, IL-6, and IL-10, as described in the below sections.
(§2) RA serum marker analysis. Blood was collected from the tail vein, and 100 µL was used for the assays. All assays were conducted using the manufacturer’s instructions for the respective assay kits. The following assay kits were purchased: Mouse TNF-α GENLISA™ ELISA (Krishgen BioSystems cat#KB2145, Mumbai, India), Mouse IL-10 GENLISA™ ELISA (Krishgen BioSystems cat#KB2072), Mouse hsC-Reactive Protein, hs-CRP GENLISA™ ELISA (Krishgen BioSystems cat#KLM0318), Mouse IL-6 GENLISA™ ELISA (Krishgen BioSystems cat#KB2068).

A further test deals with IL-6. Nature of the test: RA serum marker ELISA, IL-6, CIA mice. As to conditions: CID 3117694 50 mg/kg/day; indomethacin 2.5 mg/kg. In kind it is in vivo, C57 BL/6 mice. How it is done:
as §1, §2

Test [1] concerns collagen-induced arthritis (CIA) model. Nature of the test: CIA mouse model: clinical arthritis score and paw swelling. In kind it is in vivo, C57 BL/6 mice. Particulars: indomethacin 2.5 mg/kg oral, scale 0–4. On the procedure: In vivo efficacy in the CIA mouse model. All animal studies were conducted in accordance with NSU IACUC guidelines. Study protocol #2021.04.DM5 was approved by NSU IACUC before the commencement of the studies. CID 3117694 and indomethacin were ground with a small amount of the dispersing agent (0.5% HPMC (3 cP)–0.5% Tween 80) using a mortar and a pestle and mixed repeatedly to form a smooth paste. The paste was moved to a graduated cylinder and filled up to the required volume with the dispersing agent to form a suspension, as described elsewhere. The test compound (10, 30, and 50 mg/kg) and indomethacin (2.5 mg/kg) were administered with a mouse gavage needle (gauge no: 18, BD, catalog number: 653902) through the oral route as a suspension with a 5 mL/kg dose volume (from day 0 to day 28). In this study, 6–8-week-old C57 BL/6 mice from Charles River (male and female) were used. Animals were randomly assigned to one of the following six groups: (1) normal (non-RA control), (2) RA control untreated, (3) RA control treated with 2.5 mg/kg/day indomethacin, and 3 test groups (CID 3117694 (10 mg/kg/day, 30 mg/kg/day, and 50 mg/kg/day)) to provide an estimate for the lead compound’s efficacy range. Each group had three males and three females assigned to the control for gender-based differences. Arthritis was induced in the right paws of the mice under anaesthesia. The left paw of the mice was used as a control. A total of 10 µL collagen from bovine (type II collagen) nasal septum emulsion (2 mg/mL) was injected into the right knee joint with a glass Hamilton syringe and 25 G needles for intraarticular (i.a.) injection, followed by a total of 100 µL Complete Freund’s adjuvant (CFA) emulsion was injected at the back of mice using a syringe with 25 G needles subcutaneously (s.c.). On day 14 after the first injection, the mice were injected, i.e., with 10 µL of collagen from the bovine nasal septum ([…]) and s.c. with a 100 µL CFA emulsion for a boost injection. Arthritis progression was monitored using a clinical arthritis scoring system (0–4), and paw swelling was measured with the help of a plethysmograph on days 0, 14, 21, and 28 after the induction of arthritis. […] After the administration of a primary dose of collagen from the bovine nasal septum, CFA scoring was assessed. Measurements were taken on days 0, 14, 21, and 28 after the induction of arthritis in induced paws (right paw) and non-arthritis paws (left paw). CID 3117694 (10 mg/kg/day, 30 mg/kg/day, and 50 mg/kg/day) and pharmacological control (indomethacin 2.5 mg/kg/day) treatment were given every day for 28 days beginning from day 1 via oral gavage in hydroxy-propyl-methyl cellulose (HPMC) suspension.

Test [2] relates to articular joints affected by RA. Nature of the test: Histopathology (H & E) of arthritic joint, CIA mice. As to conditions: indomethacin 2.5 mg/kg/day. In kind it is in vivo, C57 BL/6 mice. How it is done: as §1, with “sections. Histology. Limbs from euthanized animals were preserved in buffered formalin, decalcified, embedded, sectioned, and stained with hematoxylin and eosin (H & E). Microscopic images were acquired using the Lx 400 microscope (Labomed, Fremont, CA, USA).” for “sections.”

In the next test the test system is TNFα. The test can be described thus: RA serum marker ELISA, TNFα, CIA mice. Particulars: CID 3117694 50 mg/kg/day; indomethacin 2.5 mg/kg. The class given is in vivo, C57 BL/6 mice. How it is done:
as §1, §2

A further test concerns IL-10. The test can be described thus: RA serum marker ELISA, IL-10, CIA mice. In kind it is in vivo, C57 BL/6 mice. As to conditions: CID 3117694 50 mg/kg/day; indomethacin 2.5 mg/kg. How it is done: as §1, §2
For the next test, the target named is T1, ADAM17 (Homo sapiens, UniProt P78536).
T1 construct: purchased R & D Systems (Minneapolis, MN, USA)
T1 sequence (P78536 215-824, species assumed): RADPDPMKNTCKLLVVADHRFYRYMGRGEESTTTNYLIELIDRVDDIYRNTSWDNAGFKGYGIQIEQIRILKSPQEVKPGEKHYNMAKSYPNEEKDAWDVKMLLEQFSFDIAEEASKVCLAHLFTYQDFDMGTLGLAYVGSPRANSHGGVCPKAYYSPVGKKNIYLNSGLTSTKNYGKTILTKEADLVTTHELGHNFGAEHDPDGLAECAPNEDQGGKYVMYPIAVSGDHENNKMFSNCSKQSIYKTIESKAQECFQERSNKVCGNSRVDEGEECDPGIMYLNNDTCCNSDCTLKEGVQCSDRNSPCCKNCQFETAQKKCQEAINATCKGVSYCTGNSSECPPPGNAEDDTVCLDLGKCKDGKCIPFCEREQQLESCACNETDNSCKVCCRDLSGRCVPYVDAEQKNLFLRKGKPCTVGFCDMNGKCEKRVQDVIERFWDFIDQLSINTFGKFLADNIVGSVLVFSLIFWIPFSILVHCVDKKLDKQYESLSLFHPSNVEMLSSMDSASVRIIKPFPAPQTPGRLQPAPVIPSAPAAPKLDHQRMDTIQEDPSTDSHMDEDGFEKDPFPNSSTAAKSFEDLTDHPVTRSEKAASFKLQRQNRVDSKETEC
The test can be described thus: ADAM17 enzyme assay with glycosylated substrate DM2. Particulars: for selectivity against ADAM17 (in words): ADAM10 vs ADAM17. In kind it is biochemical. On the procedure: (§3) ADAM10 and ADAM17 assays. Both assays were performed as published previously by us. Briefly, both assays followed the same general protocol. In total, 5 μL of the 2× enzyme solution (20 nM) in an assay buffer (10 mM Hepes, 0.001% Brij-35, pH 7.5) were added to solid bottom black 384 plates (Nunc, ThermoFisher, Waltham, MA, USA, cat# 264705). Next, test compounds and pharmacological controls were added to the corresponding wells using a 384-pin tool device (V & P Scientific, San Diego, CA, USA). After 60 min of incubation at RT, the reactions were started via the addition of 5 μL of the 2× solutions of glycosylated substrate DM2 (20 μM). The reactions were incubated at RT for 2 h, after which the fluorescence was measured using a Biotek H1 multimode microplate imager (λexcitation = 360 nm, λemission = 460 nm). IC50 values were calculated by fitting normalized data to the sigmoidal log vs. the response equation utilizing a non-linear regression analysis from GraphPad Prizm 9.

Another test addresses T2, ADAM10 (Homo sapiens, UniProt O14672).
T2 construct: purchased R & D Systems (Minneapolis, MN, USA)
T2 sequence (O14672 214-748): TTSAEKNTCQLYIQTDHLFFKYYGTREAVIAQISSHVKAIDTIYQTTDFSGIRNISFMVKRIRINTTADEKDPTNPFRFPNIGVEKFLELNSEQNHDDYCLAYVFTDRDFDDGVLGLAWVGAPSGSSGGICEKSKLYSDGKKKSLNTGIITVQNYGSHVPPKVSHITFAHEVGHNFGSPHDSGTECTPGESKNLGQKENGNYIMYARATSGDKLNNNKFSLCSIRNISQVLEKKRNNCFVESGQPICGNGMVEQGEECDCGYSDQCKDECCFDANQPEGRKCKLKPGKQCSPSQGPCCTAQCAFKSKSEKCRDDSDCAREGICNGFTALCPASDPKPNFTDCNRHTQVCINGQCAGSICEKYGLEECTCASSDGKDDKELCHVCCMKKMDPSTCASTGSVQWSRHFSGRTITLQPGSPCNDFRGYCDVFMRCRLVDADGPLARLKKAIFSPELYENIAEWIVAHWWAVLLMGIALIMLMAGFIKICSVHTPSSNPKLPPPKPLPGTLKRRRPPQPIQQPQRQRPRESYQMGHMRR
Nature of the test: ADAM10 enzyme assay with glycosylated substrate DM2. In kind it is biochemical. Particulars: for activity against ADAM10 (in words): SAR discussion. How it is done:
as §3

For the compound `COc1ccc2c(c1)c(CC(=O)O)c(C)n2C(=O)c1ccc(Cl)cc1` [indomethacin, reference compound], in the test with C-reactive protein (CRP), the “CRP blood level vs healthy control” value is given as “the same as that of the healthy controls”. Moreover, the “IL-6 blood level vs healthy control” value in the test on IL-6 is “the same as that of the healthy controls”. Further, the disease score in test [1] (day 21) was 2; in test [1] (day 28), 1. In addition, the “histopathological findings (in words)” value in test [2] is “presence of inflammation and hyperplasia”; in test [2] (listed as Indomethacin), “only residual inflammation and hyperplasia”. The “TNFα blood level vs healthy control” value in the test on TNFα is “the same as that of the healthy controls”. The “IL-10 blood level vs healthy control” value with IL-10 is “the same as that of the healthy controls”.
Take `Cc1ccccc1C(=O)NNC(=O)C(=O)Nc1cccc2ccccc12` [CID 2841765]: at ADAM17, the IC50 was 2 µM and the “selectivity against ADAM17 (in words)” value was “selectivity against ADAM17 was lost”. Also, at ADAM10, the IC50 turned out to be 2.8 µM and the “activity against ADAM10 (in words)” value is “retrieved the activity”.
Take `Cc1c(Cl)cccc1NC(=O)C(=O)NNC(=O)c1ccc(C(C)(C)C)cc1` [CID 2218294]: the IC50 at ADAM17 and against ADAM10 was greater than 100 µM in each case.
In the case of `CCc1ccc(NC(=O)C(=O)NNC(=O)c2ccc(C(C)(C)C)cc2)cc1` [CID 2113284], the IC50 at ADAM17 and against ADAM10 was greater than 100 µM each time.
For the compound `Cc1ccccc1NC(=O)C(=O)NNC(=O)c1ccc(Cl)cc1` [CID 2869359], the IC50 on ADAM17 and at ADAM10 was greater than 100 µM in each case. In addition, at ADAM10, the “activity against ADAM10 (in words)” value was “did not rescue the activity”.
For `Cc1ccc(NC(=O)C(=O)NNC(=O)c2ccc(C(C)(C)C)cc2)cc1Cl` [CID 2213247], the IC50 at ADAM17 and against ADAM10 was greater than 100 µM in each case.
As for `COc1ccccc1NC(=O)C(=O)NNC(=O)c1ccccc1Cl` [CID 2273473], at ADAM17, the IC50 stood at 33 µM and the “selectivity against ADAM17 (in words)” value is given as “no selectivity”. Further, at ADAM10, the IC50 was 33 µM and the “activity against ADAM10 (in words)” value is reported as “reduced affinity”.
